{"source": "patent US20100069340A1", "about": "“PHARMACEUTICAL COMPOSITIONS OF AN SRC KINASE INHIBITOR AND AN AROMATASE INHIBITOR” (Wyeth, priority 2008, published 2010)", "key": {"[1]": {"tested_on": "MDA-MB-435 (ER neg)", "experiment": "Cell proliferation assay, MDA-MB-435", "assay_type": "cell-based", "settings": "Homo sapiens, MDA-MB-435, 72 h; 3 Day assay, complete medium (10% FCS)", "procedure": "Cell lines were obtained from ATCC. Estrogen was obtained from SIGMA, 4-hydroxytamoxifen was obtained from SIGMA, Bosutinib was used for these studies. Charcoal-stripped serum and phenol red-free medium was obtained from Invitrogen. CellTiter Glo was obtained from Promega.\nCell cultures. Proliferation assays with cells in complete fetal calf serum were performed with medium containing phenol red. For all assays examining estrogen-dependence, cells were cultured in phenol red-free medium; DMEM/F12 (MCF7), RPMI1640 (MDA-MB-361, T47D) MEM (BT20, MDA-MB-231) McCoys5A modified (SKBR3), Leibowitz' L15 medium supplemented with 10 ng/mL insulin (MDA-MB-435 and MDA-MB-468) with 10% fetal bovine serum supplemented with glutamine and gentamicin. For proliferation assays, trypsinized cells were subjected to three cycles of centrifugation and resuspension in phenol red-free medium supplemented with charcoal stripped medium (5% final), glutamine and Pen/Strep. Cells were plated on day 0, with or without estrogen (10 nM final concentration). On day 1, 4-hydroxytamoxifen and SKI-606 or DMSO were added as a serial dilution. […] After mixing and two hours incubation on the bench, plates were read on an Envision reader. […] The 10 uM data point was dropped for these two lines since there was a clear plateau prior to the sharp drop in luminescence observed at 10 uM compound. […]"}, "[2]": {"experiment": "clinical", "settings": "for AUC: Mean steady state AUC; for Cmax: Mean steady state Cmax", "procedure": "A phase 1 single-agent trial of bosutinib to determine the safety, tolerability, and pharmacokinetics of orally administered bosutinib in subjects with advanced-stage, previously treated, solid tumors is currently ongoing. […] Subjects are continued on bosutinib until disease progression, or the occurrence of a significant toxicity considered possibly related to bosutinib. Dosing was started at 50 mg per day. Subsequent dose levels studied have included 100 mg, 200 mg, 300 mg, 400 mg, 500 mg and 600 mg. Safety is assessed for 21 days in 3 to 6 subjects before beginning the cohort at the next incremental dose."}, "[3]": {"tested_on": "advanced or metastatic breast cancer", "experiment": "Phase 2 open-label study of bosutinib, efficacy", "assay_type": "in vivo, human", "settings": "400 mg once-daily", "procedure": "(§1) In a phase 2, open-label, study of bosutinib in subjects with advanced or metastatic breast cancer where bosutinib is given at 400 mg once-daily, 73 total patients were randomized. As of 9 Jun. […] All of the responding patients had ER/PgR+ metastatic disease, but were less heavily pretreated with chemotherapy than typical patients and none had received prior endocrine therapy. […] In that trial, the median PFS was 15 weeks for all patients, 15.6 weeks and 14.9 weeks in ER+ and/or PgR+ and ER+ and/or PgR+, HER2-patients subgroups, respectively. There were 51 ER/PgR+ patients enrolled in the trial and a little more than half had received prior endocrine therapy, out of them 33 patients were ER/PgR+, HER2-. The preliminary safety data available for 73 subjects as of 9 Jun. 2008 are consistent with data from other ongoing studies. TEAEs were most frequently associated with gastrointestinal disorders (diarrhea, 66%; nausea, 55%; vomiting, 47%; abdominal pain, 12%; dyspepsia, 10%), general disorders (fatigue, 26%, asthenia, 19%, peripheral oedema, 11%; pyrexia, 10%), infections and infestations (16%), metabolism disorders (ALT increase, 12%; AST increase, 12%, weight loss, 11%; anorexia, 18%), musculoskeletal disorders (anthralgia, 12%; back pain, 12%), headache (14%), and rash (14%). Out of all of these TEAEs, only gastrointestinal disorders (diarrhea, 64%; nausea, 51%; vomiting, 42%; abdominal pain, 10%), general disorders (fatigue, 16%, asthenia, 14%), metabolism disorders (ALT increase, 11%; AST increase, 10%; anorexia, 15%) and rash (10%) were considered at least possibly related to bosutinib."}, "[4]": {"experiment": "Phase 2 open-label study of bosutinib, safety (TEAEs)", "assay_type": "in vivo, human", "settings": "400 mg once-daily, 73 subjects", "procedure": "as §1"}}}
{"smiles": "COc1cc(Nc2c(C#N)cnc3cc(OCCCN4CCN(C)CC4)c(OC)cc23)c(Cl)cc1Cl", "note": "[bosutinib]", "values": [{"measurement": "IC50", "setting": "[1]", "value": 3.4, "unit": "µM"}, {"measurement": "Mean steady state AUC", "setting": "[2]; human, in vivo, po", "value": 3660, "unit": "ng·h/mL"}, {"measurement": "Mean steady state Cmax", "setting": "[2]; human, in vivo, po", "value": 200, "unit": "ng/mL"}, {"measurement": "Multiple-dose exposure versus single-dose exposure", "setting": "[2]; human, in vivo, po", "value": "2-3 fold"}, {"measurement": "Tmax", "setting": "[2]; human, in vivo, po", "value": "3 to 6", "unit": "h"}, {"measurement": "half-life", "setting": "[2]; human, in vivo, po", "value": "22 to 25", "unit": "h"}, {"measurement": "AUC", "setting": "[2]; human, in vivo, po, 600 mg", "value": 3360, "unit": "ng·h/mL"}, {"measurement": "Cmax", "setting": "[2]; human, in vivo, po, 600 mg", "value": 208, "unit": "ng/mL"}, {"measurement": "AUC", "setting": "[2]; human, in vivo, po", "value": 2580, "unit": "ng·h/mL"}, {"measurement": "Cmax", "setting": "[2]; human, in vivo, po", "value": 157, "unit": "ng/mL"}, {"measurement": "Dose limiting toxicities observed", "setting": "[2]; in vivo, po", "value": "nausea, vomiting, diarrhea, and rash"}, {"measurement": "protocol-defined maximum tolerable dose", "setting": "[2]; subjects with multiple-relapsed solid tumors, oral", "value": 500, "unit": "mg daily"}, {"measurement": "tumor shrinkage in the near response", "setting": "[3]", "value": 29, "unit": "%"}, {"measurement": "clinical benefit", "setting": "[3]; 73 patients, responders plus stable disease ≧24 weeks", "value": 27.4, "unit": "%"}, {"measurement": "near response", "setting": "[3]; of 73 patients", "value": 1}, {"measurement": "partial response", "setting": "[3]; of 73 patients", "value": 4, "unit": "subjects"}, {"measurement": "stable disease ≧24 weeks", "setting": "[3]; of 73 patients", "value": 13, "unit": "patients"}, {"measurement": "median PFS", "setting": "[3]; ER+ and/or PgR+ subgroup", "value": 15.6, "unit": "weeks"}, {"measurement": "median PFS", "setting": "[3]; ER+ and/or PgR+, HER2- subgroup", "value": 14.9, "unit": "weeks"}, {"measurement": "median PFS", "setting": "[3]; all patients", "value": 15, "unit": "weeks"}, {"measurement": "TEAE ALT increase", "setting": "[4]; all TEAEs", "value": 12, "unit": "%"}, {"measurement": "TEAE AST increase", "setting": "[4]; all TEAEs", "value": 12, "unit": "%"}, {"measurement": "TEAE abdominal pain", "setting": "[4]; all TEAEs", "value": 12, "unit": "%"}, {"measurement": "TEAE anorexia", "setting": "[4]; all TEAEs", "value": 18, "unit": "%"}, {"measurement": "TEAE anthralgia", "setting": "[4]; all TEAEs", "value": 12, "unit": "%"}, {"measurement": "TEAE asthenia", "setting": "[4]; all TEAEs", "value": 19, "unit": "%"}, {"measurement": "TEAE back pain", "setting": "[4]; all TEAEs", "value": 12, "unit": "%"}, {"measurement": "TEAE diarrhea", "setting": "[4]; all TEAEs", "value": 66, "unit": "%"}, {"measurement": "TEAE dyspepsia", "setting": "[4]; all TEAEs", "value": 10, "unit": "%"}, {"measurement": "TEAE fatigue", "setting": "[4]; all TEAEs", "value": 26, "unit": "%"}, {"measurement": "TEAE headache", "setting": "[4]; all TEAEs", "value": 14, "unit": "%"}, {"measurement": "TEAE infections and infestations", "setting": "[4]; all TEAEs", "value": 16, "unit": "%"}, {"measurement": "TEAE nausea", "setting": "[4]; all TEAEs", "value": 55, "unit": "%"}, {"measurement": "TEAE peripheral oedema", "setting": "[4]; all TEAEs", "value": 11, "unit": "%"}, {"measurement": "TEAE pyrexia", "setting": "[4]; all TEAEs", "value": 10, "unit": "%"}, {"measurement": "TEAE rash", "setting": "[4]; all TEAEs", "value": 14, "unit": "%"}, {"measurement": "TEAE vomiting", "setting": "[4]; all TEAEs", "value": 47, "unit": "%"}, {"measurement": "TEAE weight loss", "setting": "[4]; all TEAEs", "value": 11, "unit": "%"}, {"measurement": "TEAE ALT increase, at least possibly related to bosutinib", "setting": "[4]; related TEAEs", "value": 11, "unit": "%"}, {"measurement": "TEAE AST increase, at least possibly related to bosutinib", "setting": "[4]; related TEAEs", "value": 10, "unit": "%"}, {"measurement": "TEAE abdominal pain, at least possibly related to bosutinib", "setting": "[4]; related TEAEs", "value": 10, "unit": "%"}, {"measurement": "TEAE anorexia, at least possibly related to bosutinib", "setting": "[4]; related TEAEs", "value": 15, "unit": "%"}, {"measurement": "TEAE asthenia, at least possibly related to bosutinib", "setting": "[4]; related TEAEs", "value": 14, "unit": "%"}, {"measurement": "TEAE diarrhea, at least possibly related to bosutinib", "setting": "[4]; related TEAEs", "value": 64, "unit": "%"}, {"measurement": "TEAE fatigue, at least possibly related to bosutinib", "setting": "[4]; related TEAEs", "value": 16, "unit": "%"}, {"measurement": "TEAE nausea, at least possibly related to bosutinib", "setting": "[4]; related TEAEs", "value": 51, "unit": "%"}, {"measurement": "TEAE rash, at least possibly related to bosutinib", "setting": "[4]; related TEAEs", "value": 10, "unit": "%"}, {"measurement": "TEAE vomiting, at least possibly related to bosutinib", "setting": "[4]; related TEAEs", "value": 42, "unit": "%"}]}
